≈ marks a conversion by molar mass, not a printed value.
Tests used:
Type in all cases: cell-based
HCV = assay: Inhibition effects of compounds on HCV in Huh7.5 cultured cell after HCV infection; conditions: for EC50 (half effective concentration): virus not given, stands beside HCV inhibition rate
Description: 1×10^5/ml Huh7.5 cells (purchased from Vertex Pharmaceutical Co., USA) were inoculated in an amount of 0.1 ml on 96-well culture plate, placed in an incubator with 37° C., 5% CO2 content and saturation humidity, and cultured for 24 h, HCV virus in 45 IU/cell was used to infect Huh7.5, different drug solutions (DM122) formulated with culture medium were added, and cell control and HCV infection control were set. Cultivation was continuously performed in the incubator with 37° C., 5% CO2 content and saturation humidity for 72 h, kit for RNA extraction was used to extract intracellular RNA, one-step qRT-PCR was used to determine intracellular contents of HCV and GAPDH RNA, and the inhibition effects of drug on HCV infection was analyzed. […] In comparison with the virus control group, the inhibition effects on HCV infection upon action of different drugs were analyzed. […] This experiment was repeated for 3 times, * indicated […] in comparison with control, ** indicated p<0.01 in comparison with control.

2.2.15 cells = assay: Drug TC50 by MTT detection; conditions: Reed-Muench
Description: 2.2.15 cells (all cells were purchased from Vertex Pharmaceutical Co., USA) in exponential growth phase were inoculated on 96-well culture plate, 2×10^5 cells/well, added with culture media containing PFA diluted in different concentration rates, 3 wells for each diluted concentration, placed in 37° C. CO2—containing incubator and cultivated for 48 h; the supernatant was discarded, 100 μl of MTT (0.5 mg/ml) in culture medium was added, cultivation was continuously performed at 37° C. for 4 h; each well was added to 100 μl of 50% DMF-20% SDS destaining solution, stood at 37° C. overnight; ELISA was used to measure optical density at wavelength of 570 nm (0D570).
In each experiment, 3 cell control wells and 3 blank controls well were set, the results were used in formula, (cell control OD570-drug-medicated cell OD570)/cell control OD570, to calculate cell death rate (%), and Reed-Muench method was used to calculate half toxic concentration TC50.

Hsc70 [1] = assay: Detection of Hsc70 gene expression level upon action of compound on 2.2.15 cells (real-time fluorescent quantified PCR); parameters: Hsc70 mRNA / Hsc70 down-regulation rate (%): unit not given here; conditions: for Hsc70 inhibition rate (down-regulation of Hsc70 expression activity, expressed in relative OMT ratio): 2.2.15 cells, relative to OMT (= 1); for Hsc70 down-regulation rate (%): single value, concentration not given, values coincide with Table 1 relative OMT ratios
Description: 2.2.15 cells (purchased from Vertex Pharmaceutical Co., USA) in a number of 1×10^6 were inocubated to 6-well plate, cultured in a culture medium containing 10% fetal calf serum for 24 hr, the original culture medium was discarded, replaced with a culutre medium containing 400 μg/ml OMTR, which was used as control. Compounds were firstly dissolved in MEM to form 20 mg/ml mother liquid, which was diluted with culture medium when used and then applied to cells. The compounds of Examples 1-114 were separately used for treatment for 12, 24, 36 hr, then cells were harvested for extraction of RNA and DNA, then the changes of Hsc70 mRNA and HBV DNA were detected by real-time fluorescent quantified PCR.

Hsc70 [2] = assay: Inhibition effects of compound on Hsc70 in Huh7.5 cultured cell (qRT-PCR, Western blotting); parameters: key to Hsc70 down-regulation rate (%): “—” represents no significant inhibition rate
Description: 2×10^5/ml Huh7.5 cells (purchased from Vertex Pharmaceutical Co., USA) were inoculated in an amount of 3 ml on 6-well culture plate, placed in an incubator with 37° C., 5% CO2 content, saturation humidity, and cultured for 24 h, added with different drug solutions (DM122) formulated with culture medium, and cell control was set. Cultivation was continuously performed in the incubator with 37° C., 5% CO2 content, saturation humidity for 24 h, a kit for RNA extraction was used to extract intracellular RNA from the cells, and one-step qRT-PCR was used to determine intracellular contents of Hsc70 and GAPDHRNA. After the cultivation of cells was performed for 48 h, the cells were digested and harvested, then the cells were split with CytoBuster™ Protein Extraction Buffer that contained many kinds of protease inhibitors, total intracellular proteins were extracted, and Western blotting was used to analyze the contents of Hsc70 and GAPDH proteins. In comparison with the cell control, the inhibition effects on Hsc70 upon action of different drugs were analyzed.

| SMILES | EC50 (half effective concentration) (HCV) [µg/mL] | CC50 (concentration to cause poisoning in half cells) (2.2.15 cells) [µg/mL] | Hsc70 inhibition rate (down-regulation of Hsc70 expression activity, expressed in relative OMT ratio) (Hsc70 [1]) | Hsc70 down-regulation rate (%) (Hsc70 [1]) | Hsc70 down-regulation rate (%) (Hsc70 [2]; 200 ug/ml (upper data)) | Hsc70 down-regulation rate (%) (Hsc70 [2]; 400 ug/ml (lower data)) | HCV inhibition rate (%) (HCV; 200 ug/ml (upper data)) | HCV inhibition rate (%) (HCV; 400 ug/ml (lower data)) |
| --- | --- | --- | --- | --- | --- | --- | --- | --- |
| O=C(O)CCCC1C2CCCN3CCCC(CN1Cc1ccncc1)C23 (stereo not shown) [DM-145, N-(pyridin-4-yl)methyl matrinic acid] | 117.2 (≈ 328 µM) | >1000 |  |  |  |  |  |  |
| N#Cc1ccc(CN2C[C@@H]3CCCN4CCC[C@@H]([C@H]34)[C@H]2CCCC(=O)O)cc1 [DM-134, N-(4-cyanobenzyl) matrinic acid] | 52.18 (≈ 137 µM) | >1000 | 0.57 | 0.57 |  |  |  |  |
| O=C(O)CCCC1C2CCCN3CCCC(CN1Cc1ccc(Cl)cc1)C23 (stereo not shown) [DM-126, N-(4-chlorobenzyl) matrinic acid] | 21.11 (≈ 54 µM) | >1000 | 0.62 | 0.62 |  |  |  |  |
| O=C(O)CCCC1C2CCCN3CCCC(CN1Cc1cccc(Cl)c1Cl)C23 (stereo not shown) [DM-129, N-(2,3-dichlorobenzyl) matrinic acid] | 192.02 (≈ 451 µM) | 245.5 (≈ 577 µM) | 0.27 | 0.27 |  |  |  |  |
| O=C(O)CCCC1C2CCCN3CCCC(CN1C(=O)c1ccc(F)cc1)C23 (stereo not shown) [DM-154, N-(4-fluorobenzoyl) matrinic acid] | >333.33 | >1000 |  |  |  |  |  |  |
| O=C(O)CCCC1C2CCCN3CCCC(CN1Cc1cccnc1)C23 (stereo not shown) [DM-144, N-(pyridin-3-yl) methyl matrinic acid] | 31.8 (≈ 89 µM) | >1000 |  |  |  |  |  |  |
| O=C(O)C=CCC1C2CCCN3CCCC(CN1S(=O)(=O)c1ccc(C(F)(F)F)cc1)C23 (stereo not shown) [SC-84a, N-(p-trifluoromethylbenzene sulfonyl) sophocarpinic acid] | 7.54 (≈ 16 µM) | 530.07 (≈ 1120 µM) |  |  |  |  |  |  |
| Cc1ccc([N+](=O)[O-])cc1C(=O)N1C[C@H]2CCCN3CCC[C@@H]([C@H]23)[C@H]1CCCC(=O)O [Compound L2, (5R)—N-(2-methyl-5-nitrobenzoyl)matrinic acid] |  |  |  |  | 76.6 ± 2.5% | 32.7 ± 5.0 | 27.9 ± 16.3 | 5.3 ± 5.1 |
| COc1ccc(C(=O)N2CC3CCCN4CCCC(C34)C2CCCC(=O)O)cc1 (stereo not shown) [DM-151, N-(4-methoxybenzoyl) matrinic acid] |  |  |  |  | — | 11.5 ± 2.4 | 20.5 ± 3.2 | 53.4 ± 5.6 |
| O=C(O)CCCC1C2CCCN3CCCC(CN1Cc1cccc4ccccc14)C23 (stereo not shown) [DM-148, N-(naphthyl-1-yl) methyl matrinic acid] | >333.3 | 529.86 (≈ 1300 µM) |  |  |  |  |  |  |
| N#Cc1ccc(C(=O)N2CC3CCCN4CCCC(C34)C2CCCC(=O)O)cc1 (stereo not shown) [DM-152, N-(4-cyanobenzoyl) matrinic acid] | 125.65 (≈ 318 µM) | >1000 |  |  |  |  |  |  |
| N#Cc1cccc(S(=O)(=O)N2CC3CCCN4CCCC(C34)C2CC=CC(=O)O)c1 (stereo not shown) [SC-89b, N-(m-cyanobenzenesulfonyl) sophocarpinic acid] | 3.98 (≈ 9.27 µM) | 123.08 (≈ 287 µM) |  |  |  |  |  |  |

Source: patent US20130190345A1, “MATRINIC ACID/MATRINE DERIVATIVES AND PREPARATION METHODS AND USES THEREOF” (priority 2010, published 2013)
